Test system: K. pneumoniae
Assay: Antimicrobial activity (MIC) of polymers and antibiotics individually
Format: cell-based
Conditions: Klebsiella pneumoniae, agents individually
Text: As depicted in FIGS. 1-5, “m” can represent a number that is, for example, greater than or equal to 5 and less than or equal to 30, and/or “n” can represent a number that is, for example, greater than or equal to 0 and less than or equal to 25. Additionally, the “*” can represent: one or more repetitions of all and/or parts of the structures shown, one or more hydrogens, an alkyl group, an aryl group, a combination thereof, and/or the like. Unless otherwise stated, materials utilized to facilitate the experiments, tables, charts, diagrams, and/or the like described herein can be acquired from the following sources. The bacteria Staphylococcus aureus (“S. aureus”, ATCC 29737), Escherichia coli (“E. coli”, ATCC 25922), Pseudomonas aeruginosa (“P. aeruginosa”, ATCC 9027), Candida albicans (“C. albicans”, ATCC 10231), and/or Klebsiella pneumoniae (“K. pneumoniae”, ATCC700603) were acquired from American Type Culture Collection (“ATCC”).
Further, Table 1, presented below, can depict the antimicrobial activity of the guanidinium functionalized polylysine polymers and/or antibiotics individually with regards to K. pneumoniae.

| MIC [µg/mL] | Compound |
| --- | --- |
| 4 to 8 | CO/N=C(\C(=O)N[C@@H]1C(=O)N2C(C(=O)O)=C(CSC(=O)c3ccco3)CS[C@H]12)c1csc(N)n1 [Ceftiofur] |
| 15.6 | CN(C)[C@@H]1C(O)=C(C(N)=O)C(=O)[C@@]2(O)C(O)=C3C(=O)c4c(O)ccc(Cl)c4[C@@](C)(O)[C@H]3C[C@@H]12 [Chlortetracycline] |
| 1 | CCN1CCN(c2cc3c(cc2F)c(=O)c(C(=O)O)cn3C2CC2)CC1 [Enrofloxacin] |
| 31.3 | CO[C@H]1/C=C/O[C@@]2(C)Oc3c(C)c(O)c4c(O)c(c(/C=N/N5CCN(C)CC5)c(O)c4c3C2=O)NC(=O)/C(C)=C\C=C\[C@H](C)[C@H](O)[C@@H](C)[C@@H](O)[C@@H](C)[C@H](OC(C)=O)[C@@H]1C [Rifampicin] |
